Data reported in article PMC8462099 (Molecular cell, 2021).
pIC50: −log10 of the molar value.

How the values were obtained:
AMPKγ1 [1] = biological target: T1, AMPKγ1 (Homo sapiens, UniProt P54619); assay: [3H]AMP binding to GST fusion protein
AMPKγ1 [2] = biological target: T1, AMPKγ1; assay: [3H]inositol saturation binding

T1 sequence (P54619 whole entry, the tested form may be a part): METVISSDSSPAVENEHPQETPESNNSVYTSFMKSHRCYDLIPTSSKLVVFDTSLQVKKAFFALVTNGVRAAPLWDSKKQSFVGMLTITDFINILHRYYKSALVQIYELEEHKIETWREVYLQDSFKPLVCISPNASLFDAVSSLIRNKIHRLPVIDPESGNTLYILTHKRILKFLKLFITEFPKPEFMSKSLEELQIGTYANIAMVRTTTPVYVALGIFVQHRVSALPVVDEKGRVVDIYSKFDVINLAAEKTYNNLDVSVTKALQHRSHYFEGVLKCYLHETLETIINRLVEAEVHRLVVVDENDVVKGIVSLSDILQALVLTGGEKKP

pIC50 (AMPKγ1 [1]) | Kd (AMPKγ1 [2]) [pmol] | Compound
5.72 |  | Nc1ncnc2c1ncn2[C@@H]1O[C@H](COP(=O)(O)O)[C@@H](O)[C@H]1O [AMP]
 | 98.2 | O[C@H]1[C@H](O)[C@@H](O)[C@H](O)[C@@H](O)[C@H]1O [Ins, inositol]
